Source: US20250059187A1, “COVALENTLY BINDING INHIBITORS OF G12S, G12D AND/OR G12E MUTANTS OF K-RAS GTPASE” (The Regents of the University of California, priority 2021, published 2025)

Key:
Assay type in all cases: binding
wild type K-Ras [1] = biological target: T1, wild type K-Ras (Homo sapiens, UniProt P01116); assay: Covalent modification of test protein after incubation with compound; settings: 24-h incubation with 100 μM compound at 23° C. at pH 7.5
T1 construct: human K-Ras (wildtype, aa 1-169); 6xHis tag + TEV cleavage site (N, cleaved yes); made in house; host or cells: E. coli BL21(DE3)

K-Ras G12E = biological target: T2, K-Ras G12E (Homo sapiens, UniProt P01116, G12E); assay: as above; settings: 24-h incubation with 100 μM compound at 23° C. at pH 7.5
T2 construct: human K-Ras (G12E, aa 1-169); 6xHis tag + TEV cleavage site (N, cleaved yes); made in house; host or cells: E. coli BL21(DE3)

wild type K-Ras [2] = biological target: T1, wild type K-Ras; assay: Covalent modification of recombinant wild-type K-Ras by whole-protein mass spectrometry; settings: 24-h incubation, 100 μM compound, 23° C., pH 7.5
Protocol: (§1) Test compounds were prepared as 100× stock solutions in DMSO. K-Ras proteins were diluted with SEC Buffer (20 mM HEPES 7.5, 150 mM NaCl, 1 mM MgCl2) to 400 nM or 1 μM. In a typical reaction, 0.5 μL 100× compound stock was mixed with 50 μL diluted K-Ras protein, and the resulting mixture was incubated for the desired amount of time. The extent of modification was assessed by electrospray mass spectrometry using a Waters Xevo G2-XS system equipped with an Acquity UPLC BEH C4 1.7 μm column. The mobile phase was a linear gradient of 5-95% acetonitrile/water+0.05% formic acid. For kinetic measurements, a 2× compound solution was first prepared in SEC Buffer, which was then mixed with 400 nM K-Ras(G12S) protein at 1:1 (v/v) ratio. Injection time stamps were used to calculate elapsed time.
as §1, with “K-Ras(G12D)” for “K-Ras(G12S)”

K-Ras(G12S) = K-Ras(G12S) (Homo sapiens, UniProt P01116, G12S); assay: Covalent modification of recombinant K-Ras(G12S) by whole-protein mass spectrometry; parameters: human K-Ras (G12S, aa 1-169); 6xHis tag + TEV cleavage site (N, cleaved yes); made in house; host or cells: E. coli BL21(DE3); settings: 24-h incubation, 100 μM compound, 23° C., pH 7.5
Protocol: as §1, with “The mobile phase was a linear gradient of 5-95% acetonitrile/water+0.05% formic acid.” left out
as §1, with “The mobile phase was a linear gradient of 5-95% acetonitrile/water+0.05% formic acid.” left out, “K-Ras(G12D)” for “K-Ras(G12S)”

K-Ras G12D = biological target: T3, K-Ras G12D (Homo sapiens, UniProt P01116, G12D); assay: Covalent modification of test protein after incubation with compound; settings: 24-h incubation with 100 μM compound at 23° C. at pH 7.5
T3 construct: human K-Ras (G12D, aa 1-169); 6xHis tag + TEV cleavage site (N, cleaved yes); made in house; host or cells: E. coli BL21(DE3)

SMILES | % covalent modification of wild type K-Ras (wild type K-Ras [1]) [%] | % covalent modification of K-Ras G12E (K-Ras G12E) [%] | % covalent modification of wild type K-Ras (wild type K-Ras [2]) [%] | % covalent modification of K-Ras G12S (K-Ras(G12S)) [%] | % covalent modification of K-Ras G12D (K-Ras G12D) [%]
O=C1O[C@@H]2CCN(c3ncnc4c(F)c(-c5ccccc5F)c(Cl)cc34)C[C@H]12 [Compound 04-005] | 0 | 0 | 0 | 0 | 0
CC1(c2cc(NCC(=O)N3CC[C@H]4OC(=O)[C@H]4C3)c(O)cc2Cl)CC1 [Compound 06-092] | 8.0 | 7.4 | 8.0 | 0 | 2.4
CN1CCC[C@@H]1COc1nc2c(c(N3CC[C@H]4C(=O)O[C@H]4C3)n1)CCN(c1cccc3cccc(Cl)c13)C2 [Compound 12-077] | 7.5 | 8.6 | 7.5 | 100 | 6.9
O=C1CC(C(=O)N2[C@@H]3CC[C@H]2CN(c2nc(OCC45CCCN4CCC5)nc4c(F)c(-c5cccc6cccc(Cl)c56)ncc24)C3)O1 (some centres unmarked) [Compound 14-036] | 22.0 | 42.0 | 22.0 | 42.0 | 100
C#Cc1cccc2cccc(-c3ncc4c(N5C[C@H]6CC[C@@H](C5)N6C(=O)[C@@H]5OC(=O)[C@H]5C(C)C)nc(OCC56CCCN5CCC6)nc4c3F)c12 [(2R, 3S)-5] | 0 | 0 |  |  | 100
CN1CCC[C@@H]1COc1nc2c(c(N3CCC4(CC3)CNC4=O)n1)CCN(c1cccc3cccc(Cl)c13)C2 [Compound 12-064] | 0 | 0 | 0 | 0 | 0
C#Cc1c(F)ccc2cc(O)cc(-c3ncc4c(N5C[C@H]6CC[C@@H](C5)N6C(=O)[C@@H]5OC(=O)[C@H]5C(C)C)nc(OC[C@@]56CCCN5C[C@H](F)C6)nc4c3F)c12 [(2R, 3S)-6] | 0 | 0 |  |  | 100
O=C1C[C@H](C(=O)N2[C@@H]3CC[C@H]2CN(c2nc(OCC45CCCN4CCC5)nc4c(F)c(-c5cccc6cccc(Cl)c56)ncc24)C3)O1 [(R)-2] | 0 |  |  |  | 100
CN1CCC[C@@H]1COc1nc2c(c(N3CCC4(CC3)CN(S(=O)(=O)O)C4=O)n1)CCN(c1cccc3cccc(Cl)c13)C2 [Compound 12-087] | 0 | 0 | 0 | 0 | 0
CN1CCC[C@@H]1COc1nc2c(c(N3C[C@@H]4OC(=O)[C@@H]4C3)n1)CCN(c1cccc3cccc(Cl)c13)C2 [Compound 12-058] | 6.0 | 7.0 | 6.0 | 94.0 | 5.0
CC(C)[C@@H]1C(=O)O[C@H]1C(=O)N1[C@@H]2CC[C@H]1CN(c1nc(OCC34CCCN3CCC4)nc3c(F)c(-c4cccc5cccc(Cl)c45)ncc13)C2 [(2R, 3S)-4] | 0 |  |  |  | 100
CC1(c2cc(NCC(=O)N[C@@H]3COC3=O)c(O)cc2Cl)CC1 [Compound 06-095] | 0 |  |  |  | 0
Cc1ccc2[nH]ncc2c1-c1cc2ncnc(N3CCC(C(=O)N[C@@H]4COC4=O)CC3)c2cc1Cl [Compound 04-023] | 1.5 | 2.1 |  |  | 2.7
CC1(c2cc(NCC(=O)N[C@H]3COC3=O)c(O)cc2Cl)CC1 [Compound 06-094] | 0 |  |  |  | 0
Cc1ccc2[nH]ncc2c1-c1cc2ncnc(N3CC(C(=O)N[C@H]4COC4=O)C3)c2cc1Cl [Compound 03-099] | 18.6 | 16.8 |  |  | 23.4
CC1(c2cc(NCC(=O)N3CC[C@@]4(C)C(=O)O[C@H]4C3)c(O)cc2Cl)CC1 [Compound 08-044] | 0 | 0 | 0 |  | 0
C[C@@H]1C(=O)O[C@H]1C(=O)N1[C@@H]2CC[C@H]1CN(c1nc(OCC34CCCN3CCC4)nc3c(F)c(-c4cccc5cccc(Cl)c45)ncc13)C2 [(2R, 3S)-3] | 0 |  |  |  | 100
Cc1ccc2[nH]ncc2c1-c1cc2ncnc(N3CC(C(=O)N[C@@H]4COC4=O)C3)c2cc1Cl [Compound 03-100] | 22.6 | 18.5 |  |  | 17.7
CC1(c2cc(NCC(=O)N3CC[C@H]4OC(=O)[C@@]4(C)C3)c(O)cc2Cl)CC1 [Compound 08-043] | 0 | 0 | 0 |  | 0
Cc1ccc2[nH]ncc2c1-c1cc2ncnc(N3CCC(C(=O)N[C@H]4COC4=O)CC3)c2cc1Cl [Compound 04-022] | 4.6 | 2.1 |  |  | 4.1
